Data on 31 compounds can be found in ChEMBL document CHEMBL3399915, “Design, synthesis, and evaluation of phenylglycinols and phenyl amines as agonists of GPR88” (Bioorg Med Chem Lett, 2015).

Some results are limits rather than exact numbers.

The target of data set [1] is T1, G protein-coupled receptor 88 (Homo sapiens, UniProt Q9GZN0). The experiment in a line: Agonist activity at GPR88 (unknown origin) transfected in forskolin-stimulated HEK cells assessed as inhibition of cAMP production after 30 mins by HTRF method relative to control. It is filed as functional, cell-based, HEK293. A general note: Cyclic AMP is a second messenger, typically raised through Gs and lowered through Gi signalling.

Data set [2] is described as follows: Protein binding in rat brain by equilibrium dialysis method. It is filed as ADME, tissue-based. Conditions: read-out: PB (converted).
A short description of data set [3]: Plasma concentration in rat at 10 mg/kg, ip after 30 mins. The data set is classed as ADME, organism-based. More on the design: dose 10 mg/kg, route intraperitoneal.
The nature of data set [4]: Drug uptake in rat CSF at 10 mg/kg, ip after 30 mins. The data set is classed as ADME, organism-based, Cerebrospinal fluid. More on the design: dose 10 mg/kg, route intraperitoneal. Particulars: read-out: Drug uptake.
Data set [5] is described as follows: Drug uptake in rat brain at 10 mg/kg, ip after 30 mins. The data set is classed as ADME, organism-based. Conditions: read-out: Drug uptake. More on the design: dose 10 mg/kg, route intraperitoneal.
The nature of data set [6]: Drug uptake in rat lung at 10 mg/kg, ip after 30 mins. The data set is classed as ADME, organism-based. More on the design: dose 10 mg/kg, route intraperitoneal. Particulars: read-out: Drug uptake.
Data set [7] in a line: Clearance in mouse at 10 mg/kg, ip. It is filed as ADME, organism-based. More on the design: dose 10 mg/kg, route intraperitoneal. Conditions: in vivo.
A short description of data set [8]: Plasma concentration in rat at 30 mg/kg, ip after 30 mins. More on the design: dose 30 mg/kg, route intraperitoneal. It is filed as ADME, organism-based.
Data set [9] can be described thus: Drug uptake in rat CSF at 30 mg/kg, ip after 30 mins. The data set is classed as ADME, organism-based, Cerebrospinal fluid. More on the design: dose 30 mg/kg, route intraperitoneal. Particulars: read-out: Drug uptake.
The nature of data set [10]: Drug uptake in rat brain at 30 mg/kg, ip after 30 mins. The data set is classed as ADME, organism-based. More on the design: dose 30 mg/kg, route intraperitoneal. Conditions: read-out: Drug uptake.
A short description of data set [11]: Drug uptake in rat lung at 30 mg/kg, ip after 30 mins. The data set is classed as ADME, organism-based. More on the design: dose 30 mg/kg, route intraperitoneal. Conditions: read-out: Drug uptake.
For data set [12], the target named is T1, G protein-coupled receptor 88. Kind of data set: Agonist activity at GPR88 (unknown origin) transfected in forskolin-stimulated HEK cells assessed as [35S]GTPgammaS binding after 60 mins by trilux scintillation counting analysis relative to control. The data set is classed as functional, cell-based, HEK293. On the technique in general: GTPγS resists hydrolysis and so accumulates on activated G proteins.

Data set [13] can be described thus: Plasma protein binding in rat by equilibrium dialysis method. The data set is classed as ADME, cell-free. Particulars: read-out: PPB (converted). For orientation: Equilibrium dialysis compares concentrations on both sides of a semipermeable membrane.
A short description of data set [14]: Plasma protein binding in mouse by equilibrium dialysis method. The data set is classed as ADME, cell-free. Particulars: read-out: PPB (converted).
Data set [15] can be described thus: Clearance in mouse at 1 mg/kg, iv. The data set is classed as ADME, organism-based. More on the design: dose 1 mg/kg, route intravenous. Conditions: in vivo.
Data set [16] is described as follows: Half life in mouse at 1 mg/kg, iv. Conditions: in vivo. It is filed as ADME, organism-based. More on the design: dose 1 mg/kg, route intravenous.
The nature of data set [17]: Volume of distribution at steady state in mouse at 1 mg/kg, iv. More on the design: dose 1 mg/kg, route intravenous. It is filed as ADME, organism-based. Particulars: in vivo, read-out: Vdss.
A short description of data set [18]: Drug uptake in mouse brain at 1 mg/kg, iv after 30 mins. It is filed as ADME, organism-based. More on the design: dose 1 mg/kg, route intravenous. Particulars: read-out: Drug uptake.
Data set [19] can be described thus: Plasma concentration in mouse at 1 mg/kg, iv after 30 mins. It is filed as ADME, organism-based. More on the design: dose 1 mg/kg, route intravenous.
A short description of data set [20]: Ratio of drug level in brain to plasma in mouse at 1 mg/kg, iv after 30 mins. It is filed as ADME, organism-based. More on the design: dose 1 mg/kg, route intravenous. Particulars: brain and plasma, read-out: BPR.

T1 sequence (Q9GZN0 whole entry): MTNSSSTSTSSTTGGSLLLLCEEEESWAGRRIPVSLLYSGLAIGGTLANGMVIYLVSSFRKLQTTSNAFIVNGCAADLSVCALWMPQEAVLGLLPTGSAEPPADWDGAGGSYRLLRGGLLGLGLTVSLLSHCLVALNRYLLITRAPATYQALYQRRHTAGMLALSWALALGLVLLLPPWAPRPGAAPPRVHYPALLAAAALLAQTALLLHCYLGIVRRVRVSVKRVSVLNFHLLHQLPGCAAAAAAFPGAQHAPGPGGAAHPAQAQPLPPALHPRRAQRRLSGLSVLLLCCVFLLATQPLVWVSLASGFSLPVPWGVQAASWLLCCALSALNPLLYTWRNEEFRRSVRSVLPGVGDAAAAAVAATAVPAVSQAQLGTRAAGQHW

Regarding `CCCC(C)COc1ccc([C@H](CN)NC(=O)[C@@H](C)c2ccccc2)cc1` (mixture of isomers), the EC50 in data set [1] was 110 nM.

Take `CCCC(C)COc1ccc([C@H](CN2CCN(C)CC2)NC(=O)[C@@H](C)c2ccccc2)cc1` (mixture of isomers): the EC50 in [1] turned out to be 90 nM.

With `CC[C@H](C)COc1ccc([C@H](CO)NC(=O)[C@@H](C)c2ccccc2)c(C)c1`, in data set [1], the EC50 was determined as 160 nM.

As to `CO[C@@H](C)COc1ccc([C@H](CO)NC(=O)[C@@H](C)c2ccccc2)cc1`, the EC50 in data set [1] was above 10000 nM.

Consider `CCCC(C)COc1ccc([C@H](CN(C)C)NC(=O)[C@@H](C)c2ccccc2)cc1` (mixture of isomers), for which the EC50 in data set [1] amounted to 29 nM.

`CC[C@H](C)COc1cc(C)c([C@H](CO)NC(=O)[C@@H](C)c2ccccc2)c(C)c1`: in data set [1], the EC50 stood at 170 nM.

On to `CC[C@H](C)COc1ccc([C@H](CO)NC(=O)[C@@H](C)c2ccccc2)c(C)n1`, for which the EC50 in [1] came to 260 nM.

Regarding `CCCC(C)COc1ccc([C@H](CO)NC(=O)N(CC)Cc2ccccc2)cc1` (mixture of isomers), in [1], the EC50 was determined as 1500 nM.

On to `O=C(N[C@@H](CO)c1ccc2ccccc2c1)[C@H]1C[C@@H]1c1ccccc1`, for which the EC50 in data set [1] worked out at 2500 nM.

For `CC[C@H](C)COc1ccc([C@H](CO)NC(=O)[C@@H](C)c2ccccc2)c(F)c1`, the EC50 in [1] was 460 nM.

In the case of `CC[C@H](C)COc1ccc([C@H](CN)NC(=O)[C@@H](C)c2ccccc2)cc1`, the concentration giving a half-maximal response (EC50) in data set [1] was above 10000 nM. Moreover, the fraction unbound in [2] is 0.09. For the same compound, the concentration at 0.5 h was 860 nM in data set [3], 1.1 nM in data set [4], 340 nM in [5] and 59500 nM in data set [6]. Moreover, the CL/F in data set [7] amounted to 66 mL/min/kg.

For `CCCC(C)COc1ccc([C@H](CO)NC(=O)[C@H]2C[C@@H]2c2ccccc2)cc1` (mixture of isomers), in data set [1], the half-maximal effective concentration (EC50) came out at 730 nM.

On to `C[C@H](C(=O)N[C@@H](CO)c1ccc(OCC2CCO2)cc1)c1ccccc1` (stereo partly drawn), for which the EC50 in [1] was above 10000 nM.

As for `O=C(N[C@@H](CO)c1ccc2ccccc2c1)[C@H]1C[C@H]1c1ccccc1`, the EC50 in data set [1] is above 110000 nM.

Turning to `CCCC(C)COc1ccc([C@H](CN2CCCC2)NC(=O)[C@@H](C)c2ccccc2)cc1` (mixture of isomers), the EC50 in data set [1] was found to be 570 nM.

Regarding `CCCC(C)COc1ccc([C@H](CO)NC(=O)c2ccccc2)cc1` (mixture of isomers), the EC50 in data set [1] was determined as 170 nM.

In the case of `CC[C@H](C)COc1ccc([C@H](CO)NC(=O)[C@@H](C)c2ccccc2)c(OC)c1`, the EC50 in [1] was 190 nM.

On to `O=C(N[C@@H](CO)c1ccc2ccccc2c1)[C@@H]1C[C@@H]1c1ccccc1`, for which the EC50 in data set [1] is above 81000 nM.

Take `O=C(N[C@@H](CO)c1ccc2ccccc2c1)[C@@H]1C[C@H]1c1ccccc1`: in [1], the EC50 was above 270000 nM.

Consider `CC[C@H](C)COc1ccc([C@H](CO)NC(=O)[C@H]2C[C@@H]2c2cccs2)cc1`, for which, in [1], the EC50 is above 10000 nM. Moreover, the fraction unbound in [2] is 0.06. Moreover, the concentration at 0.5 h stood at 2210 nM in [3]; 5.6 nM in data set [4]; 2510 nM in data set [5]; 5270 nM in [8]; 5.7 nM in data set [9]; 5540 nM in [10]. Besides, in data set [11], the concentration at 0.5 h worked out at 11500 nM. Besides, the CL/F in data set [7] was found to be 144 mL/min/kg.

As to `Cc1ccc(-c2ccc([C@H](CO)NC(=O)[C@H]3C[C@@H]3c3cccs3)cc2)cc1`, the EC50 stood at 93 nM in data set [1] and 240 nM in [12]. Besides, the %max in data set [1] (HEK293) and in data set [12] (HEK293) was 90% each time. For the same compound, the fraction unbound was 0.025 in data set [13] and 0.036 in data set [14]. Further, the clearance in data set [15] is 47 mL/min/kg. In [16], this compound had a half-life of 36 min. Further, the Vd in data set [17] worked out at 2.17 L/kg. Also, the concentration at 0.5 h in [18] was 695 nM; in [19], 290 nM. For the same compound, in data set [20], the Kp at 0.5 h is 2.

Regarding `CCCC(C)COc1ccc([C@H](CN2CCOCC2)NC(=O)[C@@H](C)c2ccccc2)cc1` (mixture of isomers), the EC50 in data set [1] turned out to be 91 nM.

Consider `COCC(C)Oc1ccc([C@H](CO)NC(=O)[C@@H](C)c2ccccc2)cc1` (stereo partly drawn), for which the EC50 in [1] is above 10000 nM.

Regarding `CCCC(C)COc1ccc([C@H](CO)NC(=O)[C@@H](NC)c2ccccc2)cc1` (mixture of isomers), in data set [1], the EC50 amounted to 860 nM.

With `CCCC(C)COc1ccc([C@H](CO)NC(=O)C(CO)c2ccccc2)cc1` (mixture of isomers), in [1], the EC50 stood at 810 nM.

On to `O=C(NC(CO)c1ccc2ccccc2c1)[C@@H]1C[C@H]1c1ccccc1` (mixture of isomers), for which the EC50 in [1] amounted to 6000 nM.

As for `COc1ccc([C@H](CO)NC(=O)[C@@H](C)c2ccccc2)cc1`, the EC50 in data set [1] stood at 410 nM. Further, the fraction unbound in [2] is 0.23. In addition, the concentration at 0.5 h in data set [3] turned out to be 1240 nM; in data set [4] it was 335 nM; in data set [5], 450 nM; in [6], 970 nM.

Take `CC(C)COc1ccc([C@H](CO)NC(=O)[C@@H](C)c2ccccc2)cc1`: in [1], the EC50 was determined as 500 nM.

As to `CC(C)COc1ccc([C@H](CO)NC(=O)[C@H]2C[C@@H]2c2cccs2)cc1`, in [1], the EC50 was 690 nM. In addition, the fraction unbound in [2] was 0.05. Also, the concentration at 0.5 h amounted to 3240 nM in [3], 24 nM in data set [4], 6850 nM in data set [5] and 10500 nM in [6]. Also, the CL/F in data set [7] amounted to 176 mL/min/kg.

`CCCC(C)COc1ccc([C@H](CO)NC(=O)Cc2ccccc2)cc1` (mixture of isomers): the EC50 in data set [1] was above 10000 nM.

Regarding `CC[C@H](C)COc1ccc([C@H](CO)NC(=O)[C@@H](C)c2ccccc2)cc1`, the EC50 in data set [1] amounted to 190 nM.

The term EC50 denotes the concentration needed to bring the measured effect to its halfway point. The term CL/F denotes clearance divided by bioavailability, as obtained after extravascular dosing. In general, clearance refers to the rate of elimination divided by the concentration. Higher therefore signals efficient removal. What is called half-life is the time in which the quantity being followed falls by half. Lower therefore signals fast loss.
